US20110263629A1, “AMIDES OF DIAZABICYCLOOCTANES AND USES THEREOF” (Targacept, Inc., priority 2008, published 2011)
Read-outs that look alike come from different tables or passages of the source.

Columns and labels:
[1] = biological target: T1, rat α4β2 nAChR subtype (Rattus norvegicus, UniProt P09483+P12390); test: Radioligand binding ([3H]nicotine) at rat α4β2 nAChR, rat cortex membranes; settings: read-out: Rat α4β2 Ki
T1 construct: Preparation of membranes from rat cortex; from tissue; host or cells: rat cerebral cortex membranes
T1 sequence (P09483 31-630): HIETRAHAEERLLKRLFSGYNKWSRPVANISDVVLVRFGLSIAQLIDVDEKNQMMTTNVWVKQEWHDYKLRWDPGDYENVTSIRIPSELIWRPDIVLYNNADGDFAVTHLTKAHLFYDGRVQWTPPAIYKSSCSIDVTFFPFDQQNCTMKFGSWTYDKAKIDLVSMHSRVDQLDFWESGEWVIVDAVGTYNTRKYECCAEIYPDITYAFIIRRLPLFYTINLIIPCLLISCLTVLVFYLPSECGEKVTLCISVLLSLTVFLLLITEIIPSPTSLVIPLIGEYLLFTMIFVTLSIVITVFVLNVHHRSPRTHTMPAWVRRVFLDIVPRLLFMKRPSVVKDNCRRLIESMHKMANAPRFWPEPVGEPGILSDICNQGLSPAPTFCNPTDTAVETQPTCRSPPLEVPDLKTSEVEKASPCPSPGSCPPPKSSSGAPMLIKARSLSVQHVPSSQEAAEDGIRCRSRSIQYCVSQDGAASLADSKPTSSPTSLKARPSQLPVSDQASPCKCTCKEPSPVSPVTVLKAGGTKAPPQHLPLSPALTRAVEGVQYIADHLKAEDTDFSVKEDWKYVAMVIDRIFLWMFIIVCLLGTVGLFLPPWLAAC
T1 sequence (P12390 25-500): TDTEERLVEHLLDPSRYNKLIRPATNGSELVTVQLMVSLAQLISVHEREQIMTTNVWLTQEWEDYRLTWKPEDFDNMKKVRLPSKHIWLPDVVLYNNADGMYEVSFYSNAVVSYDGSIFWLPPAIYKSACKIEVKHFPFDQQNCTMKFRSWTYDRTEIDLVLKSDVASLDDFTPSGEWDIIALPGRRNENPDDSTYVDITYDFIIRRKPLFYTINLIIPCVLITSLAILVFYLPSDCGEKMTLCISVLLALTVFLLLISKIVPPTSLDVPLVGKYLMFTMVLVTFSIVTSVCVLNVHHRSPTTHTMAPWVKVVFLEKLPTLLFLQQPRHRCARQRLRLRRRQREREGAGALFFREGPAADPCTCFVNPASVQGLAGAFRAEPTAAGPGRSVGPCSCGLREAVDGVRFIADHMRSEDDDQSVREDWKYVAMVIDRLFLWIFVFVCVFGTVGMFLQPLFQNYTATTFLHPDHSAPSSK
Protocol: (§1) Preparation of membranes from rat cortex: Rats (female, Sprague-Dawley), weighing 150-250 g, were maintained on a 12 h light/dark cycle and were allowed free access to water and food supplied by PMI Nutrition International, Inc. Animals were anesthetized with 70% CO2, and then decapitated. Brains were removed and placed on an ice-cold platform. The cerebral cortex was removed and placed in 20 volumes (weight:volume) of ice-cold preparative buffer (137 mM NaCl, 10.7 mM KCl, 5.8 mM KH2PO4, 8 mM Na2HPO4, 20 mM HEPES (free acid), 5 mM iodoacetamide, 1.6 mM EDTA, pH 7.4); PMSF, dissolved in methanol to a final concentration of 100 μM, was added and the suspension was homogenized by Polytron. The homogenate was centrifuged at 18,000×g for 20 min at 4° C. and the resulting pellet was re-suspended in 20 volumes of ice-cold water. After 60 min incubation on ice, a new pellet was collected by centrifugation at 18,000×g for 20 min at 4° C. The final pellet was re-suspended in 10 volumes of buffer and stored at −20° C.
(§2) On the day of the assay, the frozen membranes were thawed and spun at 48,000×g for 20 min. The supernatant was decanted and discarded. The pellet was resuspended in Dulbecco's phosphate buffered saline (PBS, Life Technologies) pH 7.4 and homogenized with the Polytron for 6 seconds. Protein concentrations were determined using a Pierce BCA Protein Assay Kit, with bovine serum albumin as the standard (Pierce Chemical Company, Rockford, Ill.).
(§3) Incubation was terminated by rapid filtration on a multi-manifold tissue harvester (Brandel, Gaithersburg, Md.) using GF/B filters presoaked in 0.33% polyethyleneimine (w/v) to reduce non-specific binding. Tissue was rinsed 3 times in PBS, pH 7.4. Scintillation fluid was added to filters containing the washed tissue and allowed to equilibrate. Filters were then counted to determine radioactivity bound to the membranes by liquid scintillation counting (2200CA Tri-Carb LSC, Packard Instruments, 50% efficiency or Wallac Trilux 1450 MicroBeta, 40% efficiency, Perkin Elmer).
(§4) Data were expressed as disintegrations per minute (DPMs). Within each assay, each point had 2-3 replicates. The replicates for each point were averaged and plotted against the log of the drug concentration. IC50, which is the concentration of the compound that produces 50% inhibition of binding, was determined by least squares non-linear regression. Ki values were calculated using the Cheng-Prussof equation (1973): […]

[2] = biological target: T2, human α4β2 nAChR subtype (Homo sapiens, UniProt P17787+P43681); test: Radioligand binding ([3H]nicotine) at human α4β2 nAChR, SH-EP1/human α4β2 clonal cell membranes; settings: read-out: Human α4β2 Ki
T2 construct: expressed in transfected cells; host or cells: SH-EP1 clonal cells expressing human α4β2
T2 sequence (P43681 29-627 limits assumed): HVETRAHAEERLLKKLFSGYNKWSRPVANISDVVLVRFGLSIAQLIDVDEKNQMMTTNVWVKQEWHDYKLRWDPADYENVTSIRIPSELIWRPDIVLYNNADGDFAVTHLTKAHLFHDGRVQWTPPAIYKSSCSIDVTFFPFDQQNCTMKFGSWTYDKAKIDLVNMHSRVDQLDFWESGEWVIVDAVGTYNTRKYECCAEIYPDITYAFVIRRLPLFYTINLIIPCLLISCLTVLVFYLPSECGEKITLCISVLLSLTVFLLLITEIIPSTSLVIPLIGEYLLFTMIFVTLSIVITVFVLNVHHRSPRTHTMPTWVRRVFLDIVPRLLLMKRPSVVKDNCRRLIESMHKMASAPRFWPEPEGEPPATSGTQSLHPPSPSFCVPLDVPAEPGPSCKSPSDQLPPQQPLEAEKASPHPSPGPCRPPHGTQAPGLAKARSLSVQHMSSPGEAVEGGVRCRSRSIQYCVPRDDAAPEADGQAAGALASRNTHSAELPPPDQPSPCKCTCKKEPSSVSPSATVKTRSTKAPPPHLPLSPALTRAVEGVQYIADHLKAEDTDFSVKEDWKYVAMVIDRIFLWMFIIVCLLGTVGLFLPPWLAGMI
T2 sequence (P17787 26-502): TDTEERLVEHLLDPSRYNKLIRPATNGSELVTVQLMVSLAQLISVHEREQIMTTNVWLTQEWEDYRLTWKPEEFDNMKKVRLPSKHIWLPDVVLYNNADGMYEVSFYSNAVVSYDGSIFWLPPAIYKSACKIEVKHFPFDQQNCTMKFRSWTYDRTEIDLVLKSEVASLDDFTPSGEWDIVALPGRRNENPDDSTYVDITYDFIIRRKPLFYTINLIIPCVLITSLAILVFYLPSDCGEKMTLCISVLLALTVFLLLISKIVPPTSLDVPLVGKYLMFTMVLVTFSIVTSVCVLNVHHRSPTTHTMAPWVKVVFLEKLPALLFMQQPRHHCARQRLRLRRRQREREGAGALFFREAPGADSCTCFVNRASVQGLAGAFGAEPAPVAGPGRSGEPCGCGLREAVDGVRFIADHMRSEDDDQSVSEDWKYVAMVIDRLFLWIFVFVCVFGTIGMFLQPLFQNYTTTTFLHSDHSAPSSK
Protocol: Preparation of membranes from SH-EP1/human α4β2 clonal cells: Cell pellets from 40 150 mm culture dishes were pooled, and homogenized by Polytron (Kinematica GmbH, Switzerland) in 20 milliliters of ice-cold preparative buffer. The homogenate was centrifuged at 48,000 g for 20 minutes at 4° C. The resulting pellet was re-suspended in 20 mL of ice-cold preparative buffer and stored at −20° C.
as §2, §3, §4

[3] = biological target: T3, rat α7 nAChR subtype (Rattus norvegicus, UniProt Q05941); test: Radioligand binding ([3H]MLA) at α7 nAChR, rat hippocampus membranes
T3 construct: Preparation of membranes from rat hippocampus; from tissue; host or cells: rat hippocampus membranes
T3 sequence (Q05941 23-502): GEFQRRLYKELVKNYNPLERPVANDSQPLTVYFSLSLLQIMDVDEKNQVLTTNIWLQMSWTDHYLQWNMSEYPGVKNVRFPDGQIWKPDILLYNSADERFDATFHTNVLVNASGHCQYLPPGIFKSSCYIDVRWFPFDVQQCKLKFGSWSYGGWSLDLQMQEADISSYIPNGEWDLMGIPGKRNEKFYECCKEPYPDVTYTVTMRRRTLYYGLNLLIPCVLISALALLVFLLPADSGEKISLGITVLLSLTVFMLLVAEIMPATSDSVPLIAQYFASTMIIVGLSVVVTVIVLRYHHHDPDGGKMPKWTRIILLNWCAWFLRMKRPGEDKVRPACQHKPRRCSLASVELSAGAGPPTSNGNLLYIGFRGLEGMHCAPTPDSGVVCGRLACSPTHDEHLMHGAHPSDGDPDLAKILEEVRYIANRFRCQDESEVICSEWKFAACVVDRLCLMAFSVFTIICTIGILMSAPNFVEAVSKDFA
Protocol: as §1, with “from rat hippocampus: Rats (female,” for “from rat cortex: Rats (female,”, “70% CO2, then decapitated.” for “70% CO2, and then decapitated.”, “platform. The hippocampus was removed” for “platform. The cerebral cortex was removed”, “placed in 10 volumes (weight:volume)” for “placed in 20 volumes (weight:volume)”, “and the tissue suspension was” for “and the suspension was”, “re-suspended in 10 volumes of” for “re-suspended in 20 volumes of”
On the day of the assay, tissue was thawed, centrifuged at 18,000×g for 20 min, and then re-suspended in ice-cold PBS (Dulbecco's Phosphate Buffered Saline, 138 mM NaCl, 2.67 mM KCl, 1.47 mM KH2PO4, 8.1 mM Na2HPO4, 0.9 mM CaCl2, 0.5 mM MgCl2, Invitrogen/Gibco, pH 7.4) to a final concentration of approximately 2 mg protein/mL. Protein was determined by the method of Lowry et al., J. Biol. Chem. 193: 265 (1951), herein incorporated by reference, using bovine serum albumin as the standard.
Assay: The binding of [^3H]MLA was measured using a modification of the methods of Davies et al., Neuropharmacol. 38: 679 (1999), herein incorporated by reference. [^3H]MLA (Specific Activity=25-35 Ci/mmol) was obtained from Tocris. The binding of [^3H]MLA was determined using a 2 h incubation at 21° C. Incubations were conducted in 48-well micro-titre plates and contained about 200 μg of protein per well in a final incubation volume of 300 μL. The incubation buffer was PBS and the final concentration of [^3H]MLA was 5 nM. The binding reaction was terminated by filtration of the protein containing bound ligand onto glass fiber filters (GF/B, Brandel) using a Brandel Tissue Harvester at room temperature. Filters were soaked in de-ionized water containing 0.33% polyethyleneimine to reduce non-specific binding. Each filter was washed with PBS (3×1 mL) at room temperature. Non-specific binding was determined by inclusion of 50 μM non-radioactive MLA in selected wells.
The inhibition of [^3H]MLA binding by test compounds was determined by including seven different concentrations of the test compound in selected wells. Each concentration was replicated in triplicate. IC50 values were estimated as the concentration of compound that inhibited 50 percent of specific [^3H]MLA binding. Inhibition constants (Ki values), reported in nM, were calculated from the IC50 values using the method of Cheng et al., Biochem. Pharmacol. 22: 3099-3108 (1973), herein incorporated by reference.

[4] = rat hippocampus membranes, 5 nM [3H]MLA, read-out: Rat α7 Ki
[5] = rat cortex membranes, 5 nM [3H]nicotine

Row | SMILES | Ki [1] [µM] | Ki [2] [µM] | Ki [3, 4] [µM] | Ki [3] [µM] | Ki [1, 5] [µM] | Ki ([2]; SH-EP1/human α4β2 cell membranes, 5 nM [3H]nicotine) [µM]
1 | O=C(CCF)N1C[C@@H]2CN[C@@H](C2)C1 | 0.031 | 0.027 | 0.95 | – | – | –
2 | CCOC(=O)N1C[C@@H]2CNC[C@H]1C2 | 0.032 | 0.078 | – | > 10 | – | –
3 | O=C(C1CC=CC1)N1C[C@@H]2CN[C@@H](C2)C1 | – | – | – | 0.029 | 0.33 | 0.42
4 | O=C(C1CC1)N1C[C@@H]2CN[C@@H](C2)C1 | 0.014 | 0.0073 | – | 0.098 | – | –
5 | O=C(C1CC=CC1)N1CC2CNCC1C2 (stereo not drawn) | – | 0.021 | 0.16 | – | 0.12 | –
6 | O=C(C1CC1(F)F)N1C[C@@H]2CN[C@@H](C2)C1 (stereo partly drawn) | 0.011 | 0.011 | 0.67 | – | – | –
7 | O=C(N1CC2CNC(C2)C1)C(F)(F)F (stereo not drawn) | 2.4 | 2.1 | – | > 10 | – | –
8 | CC(C)C(=O)N1C[C@@H]2CN[C@@H](C2)C1 | 0.38 | 0.38 | – | 0.22 | – | –
9 | O=C(C1C[C@H]1F)N1CC2CNC(C2)C1 (stereo partly drawn) | 0.021 | 0.011 | – | 0.63 | – | –
10 | CCCC(=O)N1C[C@@H]2CN[C@@H](C2)C1 | 0.018 | 0.018 | – | 0.16 | – | –
11 | O=C(C1CCC1)N1C[C@@H]2CN[C@@H](C2)C1 | 0.014 | 0.013 | – | 0.37 | – | –
12 | CCC(=O)N1C[C@@H]2CN[C@@H](C2)C1 | 0.03 | 0.024 | – | 2 | – | –
13 | O=C([C@H]1C[C@H]1F)N1C[C@H]2CNC[C@@H]1C2 | 0.17 | 0.068 | – | 1.3 | – | –
14 | O=C(C1CCCC1)N1C[C@@H]2CN[C@@H](C2)C1 | 0.13 | 0.16 | 0.13 | – | – | –
15 | O=C(C1CC=CC1)N1C[C@H]2CN[C@H](C2)C1 | 0.0055 | 0.0044 | – | 0.065 | – | –
16 | O=C(C1CC1)N1C[C@H]2CN[C@H](C2)C1 | 0.0005 | 0.0008 | 0.19 | – | – | –
17 | O=C(C1CC=CC1)N1CC2CNC(C2)C1 (stereo not drawn) | 0.011 | 0.013 | – | 0.064 | – | –
